Values joined by “and” are separate entries in the source; they are usually repeats but may differ in a detail not shown here. Equal entries are not always repeated. Results filed as inconclusive are left out.
Tested on: CD8F1 mice, subcutaneous mammary adenocarcinoma, T/C%
Test: NCI In Vivo Anticancer Drug Screen. Data for tumor model Mammary Adenocarcinoma CD8F1 (subcutaneous) in CD8F1
Conditions: higher = larger tumour
Outline: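 Compound-treated versus vehicle-treated mice with transplantable tumors; survival or tumor size compared as T/C.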

[1] = endpoint: median tumor weight (est.), dose: 25.0 mg/kg/injection, schedule: Q07DX005 (ip), vehicle: Klucel (hydroxypropylcellulose) (HPC)
[2] = endpoint: median tumor weight (est.), dose: 50.0 mg/kg/injection, schedule: Q07DX005 (ip), vehicle: Klucel (hydroxypropylcellulose) (HPC)
[3] = endpoint: median tumor weight (est.), dose: 100.0 mg/kg/injection, schedule: Q07DX005 (ip), vehicle: Klucel (hydroxypropylcellulose) (HPC)
[4] = endpoint: median tumor weight change, dose: 125.0 mg/kg/injection, schedule: Q01DX001 (ip), vehicle: saline with Tween-80

SMILES: S=c1nc[nH]c2nc[nH]c12
- T/C (endpoint: mean tumor weight (est.), dose: 135.0 mg/kg/injection, schedule: Q07DX005 (ip), vehicle: sodium bicarbonate): 42 % of control
- T/C (endpoint: mean tumor weight, dose: 15.0 mg/kg/injection, schedule: Q01DX009 (ip), vehicle: saline): 16 % of control
- T/C (endpoint: mean tumor weight, dose: 30.0 mg/kg/injection, schedule: Q01DX009 (ip), vehicle: saline): 5 % of control
- T/C (endpoint: mean tumor weight, dose: 35.0 mg/kg/injection, schedule: Q07DX007 (ip), vehicle: saline): 98 % of control
- T/C (endpoint: mean tumor weight, dose: 60.0 mg/kg/injection, schedule: Q01DX009 (ip), vehicle: saline): 14 % of control
- T/C (endpoint: mean tumor weight, dose: 67.5 mg/kg/injection, schedule: Q07DX005 (ip), vehicle: saline): 57 % of control
- T/C (endpoint: mean tumor weight, dose: 67.5 mg/kg/injection, schedule: Q07DX006 (ip), vehicle: sodium bicarbonate): 49 % of control
- T/C (endpoint: mean tumor weight, dose: 67.5 mg/kg/injection, schedule: Q07DX007 (ip), vehicle: saline): 81 % of control
- T/C (endpoint: mean tumor weight, dose: 135.0 mg/kg/injection, schedule: Q07DX005 (ip), vehicle: saline): 37 % of control
- T/C (endpoint: median tumor weight (est.), dose: 4.0 mg/kg/injection, schedule: Q07DX005 (ip), vehicle: saline): 73 % of control
- T/C (endpoint: median tumor weight (est.), dose: 6.25 mg/kg/injection, schedule: Q07DX005 (ip), vehicle: Klucel (hydroxypropylcellulose) (HPC)): 78 % of control
- T/C (endpoint: median tumor weight (est.), dose: 8.0 mg/kg/injection, schedule: Q07DX005 (ip), vehicle: saline): 78 % of control
- T/C (endpoint: median tumor weight (est.), dose: 16.0 mg/kg/injection, schedule: Q07DX005 (ip), vehicle: saline): 350 % of control
- T/C [1]: 80 % of control
- T/C (endpoint: median tumor weight (est.), dose: 32.0 mg/kg/injection, schedule: Q07DX005 (ip), vehicle: saline): 78 % of control
- T/C [2]: 48 % of control
- T/C (endpoint: median tumor weight (est.), dose: 64.0 mg/kg/injection, schedule: Q07DX005 (ip), vehicle: saline): 101 % of control
- T/C [3]: 17 % of control
- T/C (endpoint: median tumor weight (est.), dose: 128.0 mg/kg/injection, schedule: Q07DX005 (ip), vehicle: saline): 28 % of control

SMILES: Cc1ccccc1-[n+]1noc(N)n1
- T/C (endpoint: median tumor weight change, dose: 31.25 mg/kg/injection, schedule: Q01DX001 (ip), vehicle: water): 72 % of control
- T/C (endpoint: median tumor weight change, dose: 62.5 mg/kg/injection, schedule: Q01DX001 (ip), vehicle: water): 87 % of control
- T/C (endpoint: median tumor weight change, dose: 125.0 mg/kg/injection, schedule: Q01DX001 (ip), vehicle: water): 29 % of control

SMILES: Nc1nncs1
- T/C [1]: 72 % of control and 85 % of control
- T/C [2]: 44 % of control and 62 % of control
- T/C [3]: 34 % of control
- T/C (endpoint: median tumor weight (est.), dose: 400.0 mg/kg/injection, schedule: Q07DX005 (ip), vehicle: Klucel (hydroxypropylcellulose) (HPC)): 24 % of control and 49 % of control

SMILES: C=C1N(C)c2ccccc2C1(C)C
- T/C [4]: 115 % of control

SMILES: O=C(c1cccnc1)c1cc(-c2ccccn2)c(=O)n2ccccc12
- T/C [4]: 182 % of control
- T/C (endpoint: median tumor weight change, dose: 250.0 mg/kg/injection, schedule: Q01DX001 (ip), vehicle: saline with Tween-80): 77 % of control
- T/C (endpoint: median tumor weight change, dose: 500.0 mg/kg/injection, schedule: Q01DX001 (ip), vehicle: saline with Tween-80): 78 % of control
- T/C (endpoint: median tumor weight change, dose: 1000.0 mg/kg/injection, schedule: Q01DX001 (ip), vehicle: saline with Tween-80): 56 % of control
- T/C (endpoint: median tumor weight change, dose: 2000.0 mg/kg/injection, schedule: Q01DX001 (ip), vehicle: saline with Tween-80): 110 % of control

SMILES: CC1=CC2C(O)(CC(CO)=CC3C4C(C)(C)C4(OC(=O)c4ccccc4)C(OC(=O)c4ccccc4)C(C)C32O)C1=O (stereo not given)
- T/C (endpoint: median tumor weight change, dose: 0.63 mg/kg/injection, schedule: Q01DX001 (ip), vehicle: saline with Tween-80): 88 % of control
- T/C (endpoint: median tumor weight change, dose: 1.25 mg/kg/injection, schedule: Q01DX001 (ip), vehicle: saline with Tween-80): 58 % of control
- T/C (endpoint: median tumor weight change, dose: 5.0 mg/kg/injection, schedule: Q01DX001 (ip), vehicle: saline with Tween-80): 96 % of control
